From the NIST ThermoML archive (doi:10.1021/je700190m) come the findings set out here.

Numbers after ± are expanded uncertainties.

This data set is described as follows: wn = mass fraction of the nth substance listed. The following applies: 310 K; 101.3 kPa; Liquid; Concentric cylinders viscometry; w1 = 0.1.
The term viscosity denotes the resistance of a fluid to flow. For the molecule `O.O.OC[C@H]1O[C@H](O[C@H]2O[C@H](CO)[C@@H](O)[C@H](O)[C@H]2O)[C@H](O)[C@@H](O)[C@@H]1O` [D-(+)-trehalose dihydrate] + O, the viscosity is listed as 1.1 ± 0.22 mPa·s.

For `OC[C@@H](O)[C@H](O)[C@@H](O)CO` [xylitol] + O, the viscosity is 1.03 ± 0.21 mPa·s. As for `O=C[C@H](O)[C@@H](O)[C@H](O[C@@H]1O[C@H](CO)[C@H](O)[C@H](O)[C@H]1O)[C@H](O)CO` [4-O-β-D-galactopyranosyl-D-glucose] + O, the figure is 1.16 ± 0.23 mPa·s; as for `OC[C@H]1O[C@@](CO)(O[C@H]2O[C@H](CO)[C@@H](O)[C@H](O)[C@H]2O)[C@@H](O)[C@@H]1O` [D-sucrose] + O, 1.06 ± 0.21 mPa·s. With `O=C[C@H](O)[C@@H](O)[C@H](O)[C@H](O)CO` [D-glucose] + O, the viscosity amounted to 1 ± 0.2 mPa·s. With `O=C(CO)[C@@H](O)[C@H](O)[C@@H](CO)O[C@H]1O[C@H](CO)[C@@H](O)[C@H](O)[C@H]1O` [leucrose] + O, the viscosity turned out to be 1.05 ± 0.21 mPa·s. As for `OC[C@@H](O)[C@@H](O)[C@H](O)[C@H](O)CO` [mannitol] + O, the figure is 1.03 ± 0.21 mPa·s; as for `OC[C@@H](O)[C@@H](O)[C@H](O)[C@@H](O)CO` [D-sorbitol] + O, 1.02 ± 0.21 mPa·s; as for `OC[C@@H](O)[C@@H](O[C@H]1O[C@H](CO)[C@@H](O)[C@H](O)[C@H]1O)[C@H](O)[C@@H](O)CO` [4-O-α-D-glucopyranosyl-D-glucitol] + O, 1.08 ± 0.22 mPa·s.

With `O.O.O.O.O.OC[C@H]1O[C@H](OC[C@H]2O[C@H](O[C@]3(CO)O[C@H](CO)[C@@H](O)[C@@H]3O)[C@H](O)[C@@H](O)[C@@H]2O)[C@H](O)[C@@H](O)[C@H]1O` [D-raffinose, pentahydrate] + O, the viscosity is given as 1.22 ± 0.25 mPa·s.
